# Assay results as given in patent US20260242478A1, “ANTIBODIES FOR TARGETING PSMA AND CD28 AND USES THEREOF” (Janux Therapeutics, Inc., priority 2023, published 2026).
# pEC50, pIC50, pKd: −log10 of the molar value.
# Test system: anti-CD28 scFv (SEQ ID NO: 9)
# Assay: Kinetic binding of anti-CD28 scFv to peptides, bio-layer interferometry (Octet RED96)
# Conditions: Table 34; CD28 scFv titrated 100-12.5 nM, 200 nM peptide loaded
# Protocol: (§1) Briefly, streptavidin biosensors were loaded with biotinylated peptides and baselined in buffer. […] After a short association period, sensors were transferred into buffer and the dissociation of bound anti-CD28 scFv was measured. The timing and steps of the experiment are shown in the accompanying table. Association and dissociation signals were recorded in real time and analyzed using a 1:1 binding model within the instrument software. Analysis using a 1:1 binding model enabled the calculation of the on and off rate constants as well as affinity, KD.
# as §1, with “KD. FIGS. 70A-70F illustrate kinetic binding of anti-CD28 scFv binding to peptides as measured by Octet. FIGS. 70G-70U illustrate kinetic binding of peptides to the anti-CD28 scFv as measured by Octet.” for “KD.”
# Chain of anti-CD28 scFv (SEQ ID NO: 9) (as listed by the source): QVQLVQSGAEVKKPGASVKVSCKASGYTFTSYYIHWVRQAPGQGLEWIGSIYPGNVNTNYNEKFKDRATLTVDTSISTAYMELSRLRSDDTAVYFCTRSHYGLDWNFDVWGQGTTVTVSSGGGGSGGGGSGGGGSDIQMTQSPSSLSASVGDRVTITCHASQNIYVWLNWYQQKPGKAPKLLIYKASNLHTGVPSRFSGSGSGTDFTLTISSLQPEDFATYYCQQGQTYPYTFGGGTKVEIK
Substance,kdis,kon
MDWCPRERWVDCFF [Peptide-9],0.0123 s⁻¹,32500 M⁻¹ s⁻¹

# Same assay, conditions: Table 36; anti-CD28 scFv titrated 100-12.5 nM, 200 nM peptide loaded
Substance,pKd,kdis,kon
MDWCPIHLWHVCFN [Peptide-32],7.30,0.00295 s⁻¹,59100 M⁻¹ s⁻¹
MDWCPIYLWSECFN [Peptide-33],7.28,0.00153 s⁻¹,29000 M⁻¹ s⁻¹
MDWCPLHMWHECFS [Peptide-35],6.90,0.00497 s⁻¹,39000 M⁻¹ s⁻¹
MDWCPLYLWNECFN [Peptide-36],7.16,0.00252 s⁻¹,36700 M⁻¹ s⁻¹
MDWCPRDLWDLCFA [Peptide-37],7.01,0.00351 s⁻¹,35900 M⁻¹ s⁻¹
MDWCPRDLWHECFA [Peptide-38],7.03,0.00277 s⁻¹,30000 M⁻¹ s⁻¹
MDWCPRDLWHLCFS [Peptide-39],7.28,0.00265 s⁻¹,51100 M⁻¹ s⁻¹
MDWCPRDLWSECFF [Peptide-40],7.10,0.0031 s⁻¹,38800 M⁻¹ s⁻¹
MDWCPRDMWDECFA [Peptide-42],6.82,0.00433 s⁻¹,28400 M⁻¹ s⁻¹
MDWCPRDMWSECFA [Peptide-43],6.72,0.0032 s⁻¹,16700 M⁻¹ s⁻¹
MDWCPRDMWSVCFS [Peptide-44],6.43,0.00812 s⁻¹,21700 M⁻¹ s⁻¹
MDWCPRERWVDCFF [Peptide-9],6.56,0.0115 s⁻¹,41500 M⁻¹ s⁻¹
MDWCPRFMWDECFN [Peptide-45],6.87,0.00364 s⁻¹,27100 M⁻¹ s⁻¹
MDWCPRHMWNYCFA [Peptide-46],7.45,0.00218 s⁻¹,61900 M⁻¹ s⁻¹
MDWCPRSLWHECFA [Peptide-47],7.29,0.00201 s⁻¹,38900 M⁻¹ s⁻¹
MDWCPRYLWHVCFA [Peptide-48],7.68,0.00187 s⁻¹,88900 M⁻¹ s⁻¹
MDWCPVHLWSVCFA [Peptide-50],7.32,0.00443 s⁻¹,92300 M⁻¹ s⁻¹
MHWCPVDLWYLCYN [Peptide-49],7.68,0.00186 s⁻¹,88200 M⁻¹ s⁻¹
MNWCPKDIWYLCFN [Peptide-34],7.05,0.00684 s⁻¹,77000 M⁻¹ s⁻¹

# Target: anti-CD28 Fab (SEQ ID NOs: 696, 697)
# Assay: anti-CD28 Fab binding to peptides, ELISA
# Conditions: Table 25; anti-CD28 Fab
# Chain of anti-CD28 Fab (SEQ ID NOs: 696, 697) (as listed by the source): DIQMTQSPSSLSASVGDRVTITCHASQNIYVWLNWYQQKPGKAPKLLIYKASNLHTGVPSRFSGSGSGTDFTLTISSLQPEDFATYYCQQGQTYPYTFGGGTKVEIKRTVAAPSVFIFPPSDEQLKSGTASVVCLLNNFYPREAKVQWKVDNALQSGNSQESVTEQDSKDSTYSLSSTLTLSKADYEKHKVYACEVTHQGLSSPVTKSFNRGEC
# Chain of anti-CD28 Fab (SEQ ID NOs: 696, 697) (as listed by the source): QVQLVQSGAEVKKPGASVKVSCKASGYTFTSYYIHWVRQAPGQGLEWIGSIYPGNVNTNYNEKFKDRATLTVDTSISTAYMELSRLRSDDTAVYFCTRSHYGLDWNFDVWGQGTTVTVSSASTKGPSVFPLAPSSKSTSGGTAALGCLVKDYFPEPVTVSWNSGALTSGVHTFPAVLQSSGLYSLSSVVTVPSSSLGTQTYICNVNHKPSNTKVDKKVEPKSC
row,pEC50,Substance
1,7.88,LCAAGASWPWPVCL [Peptide-138]
2,8.25,LCAAGATYPWPLCL [Peptide-144]
3,7.59,LCAAGATYPWPTCL [Peptide-147]
4,6.95,SCSAGAAYYWPWCL [Peptide-151]
5,7.72,SCSAGAHYPWPQCF [Peptide-148]
6,8.25,TCAAGAAWGWPLCF [Peptide-143]
7,8.59,TCAAGAAWPWPQCL [Peptide-140]
8,8.38,TCAAGAHYPWPACL [Peptide-154]
9,8.35,TCAAGATWSWPACF [Peptide-142]
10,7.69,TCAAGATYLWPTCL [Peptide-153]
11,8.36,TCSAGAAYPWPLCL [Peptide-145]
12,7.61,TCSAGAAYSWPACF [Peptide-146]
13,7.97,TCSAGAHYPWPICL [Peptide-150]
14,8.28,TCSAGASYPWPLCL [Peptide-139]
15,7.81,TCSAGATWAWPLCF [Peptide-152]
16,8.68,TCSAGATWPWPICL [Peptide-137]
17,7.89,TCSAGATYEWPRCL [Peptide-149]
18,7.80,TCSAGATYTWPKCF [Peptide-141]

# Same assay, conditions: Table 26; anti-CD28 Fab
row,pEC50,Substance
1,< 6.00,HCSGHHWLQVWKCF [Peptide-130]
2,7.35,YCEGHAPEYIGKCL [Peptide-136]
3,8.11,YCEGHAPEYIRKCL [Peptide-122]
4,8.09,YCEGHAPEYIWKCL [Peptide-123]
5,6.89,YCEGHEGIYFWKCL [Peptide-119]
6,7.49,YCEGHLPEYLEKCV [Peptide-133]
7,7.92,YCEGHLPEYLGKCL [Peptide-125]
8,7.18,YCEGHRPEYILKCL [Peptide-118]
9,7.96,YCEGHSPEYILKCL [Peptide-117]
10,7.55,YCEGHSQENIWKCL [Peptide-124]
11,7.23,YCEGHSQEYLWKCL [Peptide-128]
12,7.52,YCEGHSSEYIQKCL [Peptide-129]
13,< 6.00,YCWSHSPPFIKKCY [Peptide-131]

# Target: PSMA Fab (SEQ ID NOs: 19, 20)
# Assay: PSMA Fab binding to peptides, ELISA
# Conditions: Table 37; PSMA Fab binding to biotinylated peptide, ELISA
# Protocol: Peptides of Table 9 were evaluated for their ability to bind to PSMA Fab in a standard enzyme linked immunosorbent assay (ELISA) format. […] PSMA Fab diluted in buffer was then added to the peptide captured plates. Bound antibody was detected using a standard horse radish peroxidase conjugate secondary antibody.
# Chain of PSMA Fab (SEQ ID NOs: 19, 20) (as listed by the source): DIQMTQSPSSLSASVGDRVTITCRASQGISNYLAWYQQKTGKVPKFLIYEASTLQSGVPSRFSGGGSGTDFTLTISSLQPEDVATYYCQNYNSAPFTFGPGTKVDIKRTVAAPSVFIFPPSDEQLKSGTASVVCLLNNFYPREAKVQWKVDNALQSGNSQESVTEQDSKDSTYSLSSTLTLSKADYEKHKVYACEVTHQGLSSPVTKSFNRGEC
# Chain of PSMA Fab (SEQ ID NOs: 19, 20) (as listed by the source): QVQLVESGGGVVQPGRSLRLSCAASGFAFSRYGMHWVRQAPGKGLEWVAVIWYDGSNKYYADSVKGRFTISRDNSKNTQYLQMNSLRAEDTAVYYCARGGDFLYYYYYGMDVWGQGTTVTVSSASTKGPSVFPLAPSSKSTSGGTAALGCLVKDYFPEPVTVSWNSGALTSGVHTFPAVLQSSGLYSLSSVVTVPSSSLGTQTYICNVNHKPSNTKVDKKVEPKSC
row,pEC50,Substance
1,< 6.00,ACHSLVLKHHLQKC [Peptide-176]
2,< 6.00,DCFYAADIHWNYCN [Peptide-157]
3,< 6.00,EGCLTLVDGRAWCW [Peptide-173]
4,< 6.00,FCGWMDGDVFWFCG [Peptide-171]
5,< 6.00,FCNWVDGDVWVVCK [Peptide-172]
6,< 6.00,FCQWIEATNAWLCY [Peptide-170]
7,< 6.00,FGHCAGSPVFCAYW [Peptide-168]
8,< 6.00,HCKFHDYHSWYMCY [Peptide-175]
9,< 6.00,HLFCWEGSDRCAWV [Peptide-165]

# Target: PSMA Fab (SEQ ID NOs: 19, 20) binding to the PSMA antigen
# Assay: Inhibition of PSMA Fab binding to PSMA by peptides, competition ELISA (incl. alanine scanning)
# Design: key to Mutation Status: tolerant (T); somewhat tolerant (ST); intolerant (IT)
# Conditions: Table 38; PSMA Fab fixed at 0.3 nM, peptide 0-100 μM
# Protocol: PSMA Fab fixed at 0.3 nanomolar (nM) concentration was pre-incubated with 0-100 micromolar (μM) titrated peptides. After a short pre-incubation period, the mixture of titrated peptide with fixed PSMA Fab were added to the PSMA antigen coated plates. After a short incubation on the plates, bound PSMA Fab was detected with a standard horse radish peroxidase conjugated secondary antibody.
# The tables also designate each alanine mutation as tolerant (T), somewhat tolerant (ST), or intolerant (IT) based on changes in binding inhibition ability relative to the non-mutated peptide. Cys-5 and Cys-11 of peptide-179 and peptide-180 were not mutated.
# Chain of PSMA Fab (SEQ ID NOs: 19, 20) binding to the PSMA antigen (Q04609 whole entry partner): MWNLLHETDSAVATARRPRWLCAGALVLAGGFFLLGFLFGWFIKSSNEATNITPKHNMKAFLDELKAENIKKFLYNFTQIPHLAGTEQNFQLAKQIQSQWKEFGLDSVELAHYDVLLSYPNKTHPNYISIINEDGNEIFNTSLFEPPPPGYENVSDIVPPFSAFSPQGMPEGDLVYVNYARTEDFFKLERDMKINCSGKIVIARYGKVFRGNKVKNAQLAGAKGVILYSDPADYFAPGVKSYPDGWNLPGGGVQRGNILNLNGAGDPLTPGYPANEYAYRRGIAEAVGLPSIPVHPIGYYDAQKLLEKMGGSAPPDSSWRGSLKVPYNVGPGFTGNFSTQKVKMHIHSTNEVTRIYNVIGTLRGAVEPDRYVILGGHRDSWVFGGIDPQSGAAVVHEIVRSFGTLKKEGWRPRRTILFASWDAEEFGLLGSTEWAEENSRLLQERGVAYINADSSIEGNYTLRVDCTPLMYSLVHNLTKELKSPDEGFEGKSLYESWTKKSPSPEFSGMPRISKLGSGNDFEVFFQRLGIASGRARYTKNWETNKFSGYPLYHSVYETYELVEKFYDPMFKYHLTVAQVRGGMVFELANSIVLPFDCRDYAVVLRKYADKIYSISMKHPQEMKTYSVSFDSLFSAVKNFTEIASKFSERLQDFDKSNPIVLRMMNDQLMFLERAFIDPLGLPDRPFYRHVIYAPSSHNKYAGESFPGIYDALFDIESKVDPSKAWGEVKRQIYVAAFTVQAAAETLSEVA
row,Substance,pIC50
1,MEYCSFHRFTCVLW [Peptide-183],< 4.00

# Same assay, conditions: Table 39; PSMA Fab fixed at 0.3 nM, peptide 0-100 μM
row,Substance,pIC50
1,FVPCIPSHWLCPIW [Peptide-191],< 4.00
2,FWECYSSFCRFVEG [Peptide-196],< 4.00
3,HCEFHDYQSCDVLY [Peptide-211],< 4.00
4,HCLWHESSGRVLCF [Peptide-192],< 4.00
5,LCEWWTSHVDAWCA [Peptide-213],< 4.00
6,LCQWYPKFHWMDCD [Peptide-210],< 4.00
7,MCFVTGWGVPDDCN [Peptide-208],< 4.00
8,MEYCSFHRFTCVLW [Peptide-193],< 4.00
9,PLCGTEEVWWECRL [Peptide-197],< 4.00
10,WCWVQDDRRHVVCG [Peptide-201],< 4.00
11,YCWVDADMWLIFRC [Peptide-199],< 4.00

# Same assay, conditions: Table 40; alanine scanning of Peptide-179, change in binding inhibition relative to non-mutated peptide
row,Substance,Mutation Status
1,AMKWCTPRWMCAAE [Peptide-241],T
2,LAKWCTPRWMCAAE [Peptide-242],T
3,LMKACTPRWMCAAE [Peptide-244],ST
4,LMKWCAPRWMCAAE [Peptide-245],ST
5,LMKWCTARWMCAAE [Peptide-246],IT
6,LMKWCTPAWMCAAE [Peptide-247],T
7,LMKWCTPRAMCAAE [Peptide-248],IT
8,LMKWCTPRWACAAE [Peptide-249],IT
9,LMKWCTPRWMC [Peptide-250],T
10,Peptide-2687 (LMAWCTPRWMCAAE),ST

# Same assay, conditions: Table 40; competition binding ELISA, alanine scanning sequences of Peptide-179
row,Substance,pIC50
1,LMKWCTARWMCAAE [Peptide-246],< 4.00
2,LMKWCTPRAMCAAE [Peptide-248],< 4.00
3,LMKWCTPRWACAAE [Peptide-249],< 4.00
4,LMKWCTPRWMC [Peptide-250],5.18

# Same assay, conditions: Table 41; alanine scanning of Peptide-180, change in binding inhibition relative to non-mutated peptide
row,Substance,Mutation Status
1,AAVLCQPNWMCAGF [Peptide-251],T
2,IAALCQPNWMCAGF [Peptide-252],T
3,IAVACQPNWMCAGF [Peptide-253],ST
4,IAVLCAPNWMCAGF [Peptide-254],T
5,IAVLCQANWMCAGF [Peptide-255],IT
6,IAVLCQPAWMCAGF [Peptide-256],T
7,IAVLCQPNAMCAGF [Peptide-257],IT
8,IAVLCQPNWACAGF [Peptide-258],IT
9,IAVLCQPNWMCAAF [Peptide-259],ST
10,IAVLCQPNWMCAGA [Peptide-260],ST

# Same assay, conditions: Table 41; competition binding ELISA, alanine scanning sequences of Peptide-180
row,Substance,pIC50
1,IAVLCQANWMCAGF [Peptide-255],< 4.00
2,IAVLCQPNAMCAGF [Peptide-257],< 4.00
3,IAVLCQPNWACAGF [Peptide-258],< 4.00

# Same assay, conditions: Table 42; SAR guided optimization phage library of peptide-180
row,Substance,pIC50
1,VEVKCFPLWFCVGL [Peptide-275],< 4.00

# Same assay, conditions: Table 43; SAR guided optimization phage library of peptide-179
row,Substance,pIC50
1,EPKWCVPRGLCNYD [Peptide-240],< 4.00
